According to patent US20250136607A1 (REGOR PHARMACEUTICALS, INC., priority 2021, published 2025):

Biological target: Protein arginine deiminase 4 (PAD4) (Homo sapiens, UniProt Q9UM07)
Assay: PAD4 ammonia release assay
Format: biochemical
Details: PAD4 ammonia release assay, BAEE substrate, 60 min at RT; read-out: Average IC50 Abs
Method in brief: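 Ammonia release from BAEE substrate (2× mix 600 μM) was measured after 60 min at RT, following 15 min enzyme–compound preincubation (PAD4 2× 20 nM; pH 8.0 HEPES, 2 mM CaCl2, TCEP; 1.25% DMSO). Detection used OPA/DTT/EDTA for 120 min. % inhibition was taken versus reference-compound and DMSO controls; IC50 by four-parameter logistic fit.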

Sequence of Protein arginine deiminase 4 (PAD4) (Q9UM07 whole entry): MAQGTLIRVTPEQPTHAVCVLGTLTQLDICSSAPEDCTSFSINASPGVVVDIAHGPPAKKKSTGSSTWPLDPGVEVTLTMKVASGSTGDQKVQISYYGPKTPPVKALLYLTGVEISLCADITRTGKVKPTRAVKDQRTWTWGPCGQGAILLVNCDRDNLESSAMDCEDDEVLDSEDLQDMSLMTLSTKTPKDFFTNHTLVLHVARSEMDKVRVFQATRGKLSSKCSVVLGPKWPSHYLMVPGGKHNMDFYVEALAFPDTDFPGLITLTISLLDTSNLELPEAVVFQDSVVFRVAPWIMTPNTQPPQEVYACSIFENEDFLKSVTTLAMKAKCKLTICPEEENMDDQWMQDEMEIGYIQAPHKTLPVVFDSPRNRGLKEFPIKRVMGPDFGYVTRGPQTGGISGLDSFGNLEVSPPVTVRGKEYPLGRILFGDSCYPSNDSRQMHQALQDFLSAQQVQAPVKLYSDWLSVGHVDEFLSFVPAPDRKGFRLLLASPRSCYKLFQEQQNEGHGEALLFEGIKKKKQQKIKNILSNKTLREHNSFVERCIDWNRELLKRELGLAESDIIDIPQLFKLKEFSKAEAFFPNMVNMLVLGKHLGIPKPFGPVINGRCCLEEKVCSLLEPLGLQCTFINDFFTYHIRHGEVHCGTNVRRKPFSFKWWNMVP

| IC50 [nM] | Compound |
| --- | --- |
| 500 to 5000 | Cn1c(-c2cc3ccc4c(c3n2CC2CC2)NC(=O)C4(C)C)nc2cc(C(=O)N3C[C@H]4CC[C@@H]3[C@@H]4N)cc(F)c21 [Example 141, 7-(5-((1R,4R,7R)-7-amino-2-azabicyclo[2.2.1]heptane-2-carbonyl)-7-fluoro-1-methyl-1H-benzo[d]imidazol-2-yl)-8-(cyclopropylmethyl)-3,3-dimethyl-3,8-dihydropyrrolo[3,2-g]indol-2(1H)-one] |
| 500 to 5000 | Cn1c(-c2cc3ccc4c(c3n2CC2CC2)NCC4(C)C)nc2cc(C(=O)N3C[C@H]4CC[C@@H]3[C@@H]4N)cc(F)c21 [Example 142, ((1R,4R,7R)-7-amino-2-azabicyclo[2.2.1]heptan-2-yl)(2-(1-(cyclopropylmethyl)-6,6-dimethyl-1,6,7,8-tetrahydropyrrolo[3,2-g]indol-2-yl)-7-fluoro-1-methyl-1H-benzo[d]imidazol-5-yl)methanone] |
| 100 to 500 | Cn1c(-c2cc3ccc4c(c3n2CC2CC2)CCN4)nc2cc(C(=O)N3C[C@H]4CC[C@@H]3[C@@H]4N)cc(F)c21 [Example 143, ((1R,4R,7R)-7-amino-2-azabicyclo[2.2.1]heptan-2-yl)(2-(1-(cyclopropylmethyl)-1,6,7,8-tetrahydropyrrolo[2,3-e]indol-2-yl)-7-fluoro-1-methyl-1H-benzo[d]imidazol-5-yl)methanone] |
| 100 to 500 | Cn1c(-c2cc3ccc4[nH]ccc4c3n2CC2CC2)nc2cc(C(=O)N3C[C@H]4CC[C@@H]3[C@@H]4N)cc(F)c21 [Example 144, ((1R,4R,7R)-7-amino-2-azabicyclo[2.2.1]heptan-2-yl)(2-(1-(cyclopropylmethyl)-1,6-dihydropyrrolo[2,3-e]indol-2-yl)-7-fluoro-1-methyl-1H-benzo[d]imidazol-5-yl)methanone] |
| 500 to 5000 | Cn1c(-c2cc3ccc4c(c3n2CC2CC2)CC(=O)N4)nc2cc(C(=O)N3C[C@H]4CC[C@@H]3[C@@H]4N)cc(F)c21 [Example 145, 2-(5-((1R,4R,7R)-7-amino-2-azabicyclo[2.2.1]heptane-2-carbonyl)-7-fluoro-1-methyl-1H-benzo[d]imidazol-2-yl)-1-(cyclopropylmethyl)-6,8-dihydropyrrolo[2,3-e]indol-7(1H)-one] |
| > 5000 | CN1C(=O)Cc2c1ccc1cc(-c3nc4cc(C(=O)N5C[C@H]6CC[C@@H]5[C@@H]6N)cc(F)c4n3C)n(CC3CC3)c21 [Example 146, 2-(5-((1R,4R,7R)-7-amino-2-azabicyclo[2.2.1]heptane-2-carbonyl)-7-fluoro-1-methyl-1H-benzo[d]imidazol-2-yl)-1-(cyclopropylmethyl)-6-methyl-6,8-dihydropyrrolo[2,3-e]indol-7(1H)-one] |
| 500 to 5000 | Cn1c(-c2cc3ccc4c(Cl)c[nH]c4c3n2CC2CC2)nc2cc(C(=O)N3C[C@H]4CC[C@@H]3[C@@H]4N)cc(F)c21 [Example 149, ((1R,4R,7R)-7-amino-2-azabicyclo[2.2.1]heptan-2-yl)(2-(6-chloro-1-(cyclopropylmethyl)-1,8-dihydropyrrolo[3,2-g]indol-2-yl)-7-fluoro-1-methyl-1H-benzo[d]imidazol-5-yl)methanone] |
| 100 to 500 | Cn1c(-c2cc3ccn4ccnc4c3n2CC2CC2)nc2cc(C(=O)N3C[C@H]4CC[C@@H]3[C@@H]4N)cc(F)c21 [Example 150, ((1R,4R,7R)-7-amino-2-azabicyclo[2.2.1]heptan-2-yl)(2-(9-(cyclopropylmethyl)-9H-imidazo[1,2-a]pyrrolo[2,3-c]pyridin-8-yl)-7-fluoro-1-methyl-1H-benzo[d]imidazol-5-yl)methanone] |
| 500 to 5000 | Cn1c(-c2cc3ccc4c(c3n2CC2CC2)CCNC4)nc2cc(C(=O)N3C[C@H]4CC[C@@H]3[C@@H]4N)cc(F)c21 [Example 151, ((1R,4R,7R)-7-amino-2-azabicyclo[2.2.1]heptan-2-yl)(2-(1-(cyclopropylmethyl)-6,7,8,9-tetrahydro-1H-pyrrolo[2,3-f]isoquinoline-2-yl)-7-fluoro-1-methyl-1H-benzo[d]imidazol-5-yl)methanone] |
| 100 to 500 | CN1CCc2c(ccc3cc(-c4nc5cc(C(=O)N6C[C@H]7CC[C@@H]6[C@@H]7N)cc(F)c5n4C)n(CC4CC4)c23)C1 [Example 152, ((1R,4R,7R)-7-amino-2-azabicyclo[2.2.1]heptan-2-yl)(2-(1-(cyclopropylmethyl)-7-methyl-6,7,8,9-tetrahydro-1H-pyrrolo[2,3-f]isoquinolin-2-yl)-7-fluoro-1-methyl-1H-benzo[d]imidazol-5-yl)methanone] |
| 500 to 5000 | CC(C)N1CCc2c(ccc3cc(-c4nc5cc(C(=O)N6C[C@H]7CC[C@@H]6[C@@H]7N)cc(F)c5n4C)n(CC4CC4)c23)C1 [Example 154, ((1R,4R,7R)-7-amino-2-azabicyclo[2.2.1]heptan-2-yl)(2-(1-(cyclopropylmethyl)-7-isopropyl-6,7,8,9-tetrahydro-1H-pyrrolo[2,3-f]isoquinolin-2-yl)-7-fluoro-1-methyl-1H-benzo[d]imidazol-5-yl)methanone] |
| 100 to 500 | Cn1c(-c2cc3ccc4c(c3n2CC2CC2)CCN(C2CC2)C4)nc2cc(C(=O)N3C[C@H]4CC[C@@H]3[C@@H]4N)cc(F)c21 [Example 155, ((1R,4R,7R)-7-amino-2-azabicyclo[2.2.1]heptan-2-yl)(2-(7-cyclopropyl-1-(cyclopropylmethyl)-6,7,8,9-tetrahydro-1H-pyrrolo[2,3-f]isoquinolin-2-yl)-7-fluoro-1-methyl-1H-benzo[d]imidazol-5-yl)methanone] |
| 500 to 5000 | Cc1nnc2c3c(ccn12)cc(-c1nc2cc(C(=O)N4C[C@H]5CC[C@@H]4[C@@H]5N)cc(F)c2n1C)n3CC1CC1 [Example 159, [(1R,4R,7R)-7-amino-2-azabicyclo[2.2.1]heptan-2-yl]-[2-[12-(cyclopropylmethyl)-5-methyl-3,4,6,12-tetrazatricyclo[7.3.0.02,6]dodeca-1(9), 2,4,7,10-pentaen-11-yl]-7-fluoro-1-methyl-benzimidazol-5-yl]methanone] |
| 500 to 5000 | Cn1c(-c2cc3ccn4c(=O)[nH]nc4c3n2CC2CC2)nc2cc(C(=O)N3C[C@H]4CC[C@@H]3[C@@H]4N)cc(F)c21 [Example 160, 8-(5-((1R,4R,7R)-7-amino-2-azabicyclo[2.2.1]heptane-2-carbonyl)-7-fluoro-1-methyl-1H-benzo[d]imidazol-2-yl)-9-(cyclopropylmethyl)-2,9-dihydro-3H-pyrrolo[2,3-c][1,2,4]triazolo[4,3-a]pyridin-3-one] |
| 500 to 5000 | Cn1c(-c2cc3ccc4c(c3n2CC2CC2)NCC[S+]4[O-])nc2cc(C(=O)N3C[C@H]4CC[C@@H]3[C@@H]4N)cc(F)c21 (stereo partly drawn) [Example 162, ((1R,4R,7R)-7-amino-2-azabicyclo[2.2.1]heptan-2-yl)(2-(9-(cyclopropylmethyl)-4-oxido-1,2,3,9-tetrahydro-[1,4]thiazino[2,3-g]indol-8-yl)-7-fluoro-1-methyl-1H-benzo[d]imidazol-5-yl)methanone] |
| 100 to 500 | Cn1c(-c2cc3ccc4c(c3n2CC2CC2)CCCN4)nc2cc(C(=O)N3C[C@H]4CC[C@@H]3[C@@H]4N)cc(F)c21 [Example 163, ((1R,4R,7R)-7-amino-2-azabicyclo[2.2.1]heptan-2-yl)(2-(1-(cyclopropylmethyl)-6,7,8,9-tetrahydro-1H-pyrrolo[2,3-f]quinolin-2-yl)-7-fluoro-1-methyl-1H-benzo[d]imidazol-5-yl)methanone] |
